What follows are compounds tested on Plasmodium falciparum (assay: GSK_TCMDC: Inhibition of Plasmodium falciparum 3D7 in whole erythrocytes, using parasite LDH activity as an index of growth.). Details: Plasmodium falciparum, 3D7.
Format: functional, organism-based

Row | SMILES | XC50
1 | Cc1noc(C)c1-c1ccc2c(Nc3ccccc3C(C)(C)C)c(C(=O)NCc3ccc(OC(C)C)cc3)cnc2c1 | 908 nM
2 | N#Cc1ccc(C=Cc2nccc3c2[nH]c2ccccc23)cc1 | 643 nM
3 | Cc1cc(Nc2ccc(Cl)cc2)n2nc(C(F)(F)F)nc2n1 | 117 nM
4 | CC1CN(c2cnn(Cc3ccc(NC(=O)Nc4ccc(-c5ccccc5)cc4)cc3)c(=O)c2Cl)CC(C)N1 (stereo not given) | 367 nM
5 | O=C(NCCCCCN1CCCN(C(=O)Nc2ccc(Cl)c(C(F)(F)F)c2)CC1)C1CC1c1ccc(Cl)c(Cl)c1 (stereo not given) | 852 nM
6 | c1ccc(-c2cc(NCCCn3ccnc3)nc(-c3cccnc3)n2)cc1 | 977 nM
7 | CCCCCCCCc1c(C)[nH]c(C)c(Cl)c1=O | 229 nM
8 | COc1ccccc1CCNc1ncc(F)c(N[C@@H](Cc2ccccc2)C(=O)NCCc2ccccc2)n1 | 965 nM
9 | O=C(c1ccccc1[N+](=O)[O-])N(Cc1ccccc1)c1ccccn1 | 192 nM
10 | COc1ccc2nccc([C@@H](O)CN3CCC(NCc4cc5ccccn5n4)CC3)c2c1 | 1570 nM
11 | Cc1ccc2c(Cc3cnc(N)nc3N)cc(C)c(N)c2n1 | 1420 nM
12 | CC(C)Nc1cc(C(=O)N[C@@H](Cc2ccccc2)[C@H](O)CNC2CCOCC2)c(F)c(N2CCCCS2(=O)=O)c1 | 183 nM
13 | O=[N+]([O-])c1ccc(Nc2nc(N/N=C/c3cccc(O)c3)nc(N3CCCC3)n2)cc1 | 1080 nM
14 | Cc1cccc2nc(-c3ccc(-c4cccc(CNCC5CCCO5)c4)s3)[nH]c12 (stereo not given) | 972 nM
15 | O=C(Cn1c(CCc2cccc(F)c2F)cc(=O)c2ccccc21)N(Cc1ccc(-c2ccc(C(F)(F)F)cc2)cc1)C1CCN(CCO)CC1 | 1320 nM
16 | O=[N+]([O-])c1ccc2c(-c3ccccc3)c(-c3ccccc3)n(O)c2c1 | 989 nM
17 | Cc1cc(N2CCCC2)nc(Nc2ccc(NC(=O)CC(C)C)cc2)n1 | 841 nM
18 | COc1ccc(/C=C/C(=O)Nc2ccc(-c3ccncc3)cc2)cc1CCCN(C)C | 753 nM
19 | COc1cccc(OC)c1OCCCON1C(=N)N=C(N)NC1(C)C | 7.28 nM
20 | CC(CCc1ccccc1)NCC(O)c1cccc([N+](=O)[O-])c1 (stereo not given) | 858 nM
21 | CCCN(CCC)CCOc1ccc(C(O)(C#CC(O)(c2ccc(OCCN(CCC)CCC)cc2)c2cccc(Cl)c2)c2cccc(Cl)c2)cc1 (stereo not given) | 790 nM
22 | CCNc1cc(C(=O)N[C@@H](Cc2cc(F)cc(F)c2)[C@H](O)CNCc2cccc(C(F)(F)F)c2)cc(N2CCCCS2(=O)=O)c1 | 613 nM
23 | CC(=O)Nc1ccc(CN(Cc2ccc(OC(C)(C)C)cc2)Cc2ccc3c(c2)OCCO3)cc1 | 927 nM
24 | CCN(CCCNc1nc(=S)[nH]c2cc(OC)c(OC)cc12)c1ccccc1 | 721 nM

Row | SMILES | XC50
25 | COc1cc(-c2nc(-c3ccccc3)c(-c3ccccc3)[nH]2)cc(OC)c1O | 774 nM
26 | CCNc1cc(C(=O)N[C@@H](Cc2ccccc2Cl)[C@H](O)CNC2CCCCC2)cc(N2CCCCS2(=O)=O)c1 | 803 nM
27 | O=C(NCC1CCN(Cc2ccsc2)C1)c1cc(-c2cccc(C(F)(F)F)c2)cs1 (stereo not given) | 700 nM
28 | Cc1ccc2nc3ccccc3c(NCCN3CCN(C)CC3)c2c1 | 587 nM
29 | COc1ccc(Cl)cc1NC(=O)C(C)N1CCN(S(=O)(=O)c2ccccc2F)CC1 (stereo not given) | 672 nM
30 | CCc1cc2c3c(N)nc(N)nc3ccc2n1C(C)CC (stereo not given) | 3.2 nM
31 | CN(C)CCCn1cncc1-c1ccc2ncnc(Nc3ccc4c(cnn4Cc4ccccc4)c3)c2c1 | 726 nM
32 | COc1ccc(CC(C)NCC(O)c2cccc(Cl)c2)cc1C (stereo not given) | 902 nM
33 | COc1ccc(C2C(C(=O)Nc3ccc(C)cc3Br)c3ccccc3C(=O)N2C)cc1 (stereo not given) | 941 nM
34 | Cc1ccc(C(=O)N2CCc3cc4nccc(N5CCN6CCC[C@H]6C5)c4cc32)cc1 | 1100 nM
35 | CC(=O)Nc1ccc(C(=O)Nc2cccc(-c3ccc(-c4nc5ccccc5[nH]4)s3)c2)cn1 | 180 nM
36 | CCCC1(NC[C@@H](O)[C@H](Cc2ccccc2)NC(=O)c2cc(NCC)cc(N3CCCCS3(=O)=O)c2)CCCC1 | 505 nM
37 | CC(C)NCC(O)Cn1c2ccc(Br)cc2c2cc(Br)ccc21 (stereo not given) | 451 nM
38 | CC1(C)NC(N)=NC(=N)N1OCc1ccc(-c2ccccc2)cc1 | 3.2 nM
39 | CN(CCc1ccccn1)c1cccc2c1nc(-c1cccnc1)n2CCNCc1ccccc1 | 1060 nM
40 | CCOc1cc(CNCCCCCCNCc2cc(OCC)c(OCC)c3ccccc23)c2ccccc2c1OCC | 284 nM
41 | CCN(CC)C(=O)C1CCN(C(C(=O)N2CCN(CC(=O)N3CCCC3)CC2)c2cc3ccccc3o2)CC1 (stereo not given) | 707 nM
42 | N#Cc1c(N2CCCCCC2)nc(N)c2c(N)nc3c(c12)CC(=O)N3c1ccc(F)cc1 | 213 nM
43 | CCCc1cc(Cc2cnc(N)nc2N)cc(CCC)c1OCCCC(=O)OCC | 51.8 nM
44 | Cc1ccc(-c2cccc3c(NC(=O)Nc4ccc5nccc(N6CCN(C)CC6)c5c4)cccc23)cn1 | 352 nM
45 | CC(C)(C)Nc1nc(Nc2cccc([N+](=O)[O-])c2)nc(-n2ccnc2)n1 | 811 nM
46 | CCN(CCC1(c2ccc(Cl)c(Cl)c2)CN(C(=O)c2cc(OC)c(OC)c(OC)c2)CCO1)C1CC2c3ccccc3CC21 (stereo not given) | 426 nM
47 | COc1ccc2nc(-c3cccc(C)n3)nc(Nc3ccncc3)c2c1 | 669 nM
48 | CCCCCNc1nc2nc(N)nc(N)c2nc1-c1ccccc1 | 954 nM

Row | SMILES | XC50
49 | CC(C)NCc1ccc(-c2cccc(NC(=O)c3ccc(F)cc3)c2)cc1 | 881 nM
50 | CCOC(=O)C1=C(C)NC2=C(C(=O)CC(C)(C)C2)C1c1ccc(Br)cc1 (stereo not given) | 1160 nM
51 | O=C(Nc1ccc(F)c(F)c1)c1ccc(CN2CCCN(Cc3cccc(O)c3)CC2)cc1 | 836 nM
52 | Cc1cccc2nc(-c3cccc(-c4cccc(CNCC5CCCO5)c4)c3)[nH]c12 (stereo not given) | 602 nM
53 | CO[C@H](C)[C@H](NC(=O)[C@H](CC(C)C)[C@H](CCC(F)(F)F)N(O)C=O)C(=O)Nc1nccs1 | 110 nM
54 | CC(C)(C)c1ccc(N2C(N)=NC(N)=NC2(C)C)cc1 | 26.7 nM
55 | CN(c1ccc2c(c1)nc(NCc1ccc(F)cc1)n2C)c1ccnc(Nc2ccc(CS(C)(=O)=O)cc2)n1 | 828 nM
56 | CCc1c(C)nc(-n2nc(C)cc2NC(=O)c2ccc(OC)cc2OC)[nH]c1=O | 827 nM
57 | Clc1cccc(C=NN=c2cc[nH]c3ccccc23)c1 | 852 nM
58 | CC[C@H]1CN2CC[C@@H]1C[C@H]2[C@H](O)c1cc(N2CCCC(C)(C)C2)nc2ccc(OC)cc12 | 337 nM
59 | CC(=O)N(C)/N=C/[C@H](CCc1ccccc1)NC(=O)[C@H](CC(C)C)NC(=O)c1cccc(OCCN2CCOCC2)c1 | 332 nM
60 | COc1cccc(-c2ccc(O)c(CNCCc3cccc(F)c3)c2)n1 | 914 nM
61 | COc1ccc(S(=O)(=O)NC2CCN(c3ccnc4cc(Cl)ccc34)C2)cc1 (stereo not given) | 493 nM
62 | COc1cccc(CNC[C@@H](O)[C@H](Cc2ccccc2)NC(=O)c2cc(OC(C)C)cc(N3CCCCS3(=O)=O)c2)c1 | 730 nM
63 | OC(CNC1CCCCC1)Cn1c2ccccc2c2ccccc21 (stereo not given) | 991 nM
64 | O=C(c1cccs1)N1CCN(c2ccc([N+](=O)[O-])c(NC3CC3)c2)CC1 | 767 nM
65 | COc1ccc(Nc2nc(NCc3cccc(NS(C)(=O)=O)c3)cc(-c3ccc(OC)cc3)n2)cc1 | 1220 nM
66 | CN(C)Cc1ccc(-c2cc3c(Nc4ccc(OCc5cccc(F)c5)c(Cl)c4)ncnc3s2)[nH]1 | 824 nM
67 | CCC(C)c1ccc(Nc2nc(C)cc(N(CC)CCCN3CCCCC3)n2)cc1 (stereo not given) | 332 nM
68 | CCC1CCc2cc(N)cc(-c3nc4c(c(C)nn4CC)c(=O)[nH]3)c2O1 (stereo not given) | 1120 nM
69 | COc1ccc2ccccc2c1C=NN=c1cc(C)[nH]c2cc(C(F)(F)F)ccc12 | 1040 nM
70 | COc1ccc2nccc([C@@H](O)CN3CCC(NC(=O)/C=C/c4cc([N+](=O)[O-])ccc4OC)CC3)c2c1 | 258 nM
71 | c1ccc(-n2ncc(CNCc3ccc(-c4cccc(-c5nc6ccccc6[nH]5)c4)cc3)n2)cc1 | 1230 nM
72 | Cc1cc(-c2ccc3c(c2)CC[C@@H](N[C@@H](C)c2ccccc2)C3)cnc1N | 1730 nM

Row | SMILES | XC50
73 | CN1CCC(OC(=O)c2cc3cc(-c4ccccc4)ccc3n2S(=O)(=O)c2ccccc2)CC1 | 1090 nM
74 | O=C(NCCCN1CCN(c2cccc(Cl)c2)CC1)c1ccc(-c2nc3cc(Cl)c(Cl)cc3[nH]2)cc1 | 697 nM
75 | O=C(Nc1ccsc1C(=O)NC1CCCCC1)c1ccc(F)cc1 | 1210 nM
76 | Nc1ncc(-c2ccc3nccc(-c4ccncc4)c3c2)cc1S(=O)(=O)N1CCOCC1 | 872 nM
77 | CN1CCN(c2ccc3[nH]c(-c4ccc5[nH]c(-c6ccc(O)cc6)nc5c4)nc3c2)CC1 | 121 nM
78 | Cc1cc(C2CCN(CCCCNC(=O)c3ccc(NC(=O)c4ccc(Cl)cc4)cc3)CC2)c(C)cc1OCc1ccncc1 | 501 nM
79 | FC(F)(F)c1cc(Nc2ncnc3ccc(Br)cc23)ccc1OCc1ccccc1 | 1080 nM
80 | CC1(CCN2CCC(c3c[nH]c4cnccc34)CC2)CCCc2c(Br)cccc2C1=O (stereo not given) | 195 nM
81 | Oc1cc2c(cc1CN1CCN(Cc3ccccc3)CC1)CCC2 | 721 nM
82 | COc1cc(-n2cnc3cc(-c4ccc([N+](=O)[O-])cc4)sc3c2=O)ccc1OCCN1CCCC1 | 775 nM
83 | Cc1cc(N[C@@H](CC(C)C)C(=O)NCc2cccc(F)c2)nc(Nc2ccccc2)n1 | 1090 nM
84 | COc1ccc(CCn2c(=N)c(C(=O)NCc3cccnc3)cc3c(=O)n4ccccc4nc32)cc1 | 883 nM
85 | CN1CCCC(CN2CCN(Cc3ccc(-c4cccc(-c5nc6cc(F)ccc6[nH]5)c4)cc3)CC2)C1 (stereo not given) | 184 nM
86 | CCCCCC(=O)NCC(NCCCNc1cc(=O)c2ccccc2[nH]1)c1cc(Br)cc(Br)c1 (stereo not given) | 652 nM
87 | FC(F)(F)c1cc(Nc2ccc(Oc3ccccc3)cc2)c2cc(-c3ccncc3)ccc2n1 | 454 nM
88 | Cc1n[nH]c2ccc(-c3cc(OC[C@@H](N)Cc4ccccc4)cnc3-c3ccccc3OCc3cccc(F)c3)cc12 | 1220 nM
89 | CC(C)COc1cc(C(=O)Nc2cnc3ccccc3c2)ccc1[N+](=O)[O-] | 776 nM
90 | COc1nc2c(CCN3CC[C@H](NCc4ccc5c(c4)NC(=O)CO5)[C@H](O)C3)c(Cl)cnc2cc1F | 1020 nM
91 | COc1ccc(-c2cccc(NC(=O)c3ccc(C#N)cc3)c2)cc1CN1CCCN(C)CC1 | 756 nM
92 | CCC(C)NC(=O)CN1CN(c2ccccc2)C2(CCN(C(=O)c3ccc4ccccc4c3)CC2)C1=O (stereo not given) | 627 nM
93 | O=C(Nc1ccc(F)c(C(F)(F)F)c1)N[C@H]1CCN(CCCCCNC(=O)C2CC2c2ccc(Cl)c(Cl)c2)C1 (stereo not given in full) | 157 nM
94 | CCCN1CCc2c(sc3nc(SCC(=O)Nc4ccc(C)cc4)n(-c4ccc(C)cc4)c(=O)c23)C1 | 869 nM
95 | CN(C)CCOc1cc(NC(=O)Nc2ccc(-c3ccccc3)cc2)ccc1I | 595 nM

Reference: ChEMBL document CHEMBL1157539, “Thousands of chemical starting points for antimalarial lead identification” (Nature, 2010)
